This passage reports IC50 results from patent publication US10071957B2, “N-substituted benzamides and methods of use thereof” (GENENTECH, INC., priority 2012, dated 2018).

The test addresses hNaV1.7 (Homo sapiens (Human), UniProt Q15858). The test can be described thus: Competitive binding of tritiated compound to membranes from cells expressing hNav1.7 and the β1 subunit. Particulars: 100 pM [3H]compound, 18 h, room temperature; read-out: NaV1.7 395 Membrane Binding IC50. How it is done: Tritiated compound binding to membranes isolated from cells that heterologously express hNav1.7 and the β1 subunit
Preparation of membranes containing recombinantly expressed sodium channels: Frozen recombinant cell pellets were thawed on ice and diluted to 4 times the cell pellet weight with ice cold 50 mM Tris HCl, pH 7.4 buffer. The cell suspensions were homogenized on ice using a motorized glass dounce homogeniser. Homogenates were further diluted 8.4 times with ice cold 50 mM Tris HCl, pH 7.4 buffer and then centrifuged at 200×g at 4° C. for 15 min. The supernatants were collected and centrifuged at 10000×g at 4° C. for 50 min. The pellets were then re-suspended in 100 mM NaCl, 20 mM Tris HCl, pH 7.4 buffer containing 1% v/v protease inhibitors (Calbiochem) and re-homogenized on ice. The homogenized membranes were then processed through a syringe equipped with a 26 gauge needle. Protein concentrations were determined by Bradford Assay and the membranes were stored at −80° C.
Radioligand Binding Studies: Saturation experiments. A representative compound of formula (I) was tritiated. Three tritiums were incorporated in place of methyl hydrogens to generate [^3H]compound. Binding of this radioligand was performed in 5 mL borosilicate glass test tubes at room temperature. Binding was initiated by adding membranes to increasing concentrations of [^3H]compound in 100 mM NaCl, 20 mM Tris HCl, pH 7.4 buffer containing 0.01% w/v bovine serum albumin (BSA) for 18 h. Non-specific binding was determined in the presence of 1 μM unlabelled compound. After 18 h, the reactants were filtered through GF/C glass fiber filters presoaked in 0.5% w/v polyethylene imine. Filters were washed with 15 mL ice cold 100 mM NaCl, 20 mM Tris HCl, pH 7.4 buffer containing 0.25% BSA to separate bound from free ligand. [^3H]compound bound to filters was quantified by liquid scintillation counting.
Competitive binding experiments. Binding reactions were performed in 96-well polypropylene plates at room temperature for 18 h. In 360 μL, membranes were incubated with 100 pM [^3H]compound and increasing concentrations of Test Compound. Non-specific binding was defined in the presence of 1 μM unlabelled compound. Reactions were transferred and filtered through 96-well glass fiber/C filter plates presoaked with 0.5% polyethylene imine. The filtered reactions were washed 5 times with 200 μL ice cold buffer containing 0.25% BSA. Bound radioactivity was determined by liquid scintillation counting.
Data Analysis: For saturation experiments, non-specific binding was subtracted from total binding to provide specific binding and these values were recalculated in terms of pmol ligand bound per mg protein. Saturation curves were constructed and dissociation constants were calculated using the single site ligand binding model: Beq=(Bmax*X)/(X+Kd), where Beq is the amount of ligand bound at equilibrium, Bmax is the maximum receptor density, Kd is the dissociation constant for the ligand, and X is the free ligand concentration. For competition studies percent inhibition was determined and IC50 values were calculated using a 4 parameter logistic model (% inhibition=(A+((B−A)/(1+((x/C)^D)))) using XLfit, where A and B are the maximal and minimum inhibition respectively, C is the IC50 concentration and D is the (Hill) slope.

hNaV1.7, sequence (Q15858 whole entry, looked up): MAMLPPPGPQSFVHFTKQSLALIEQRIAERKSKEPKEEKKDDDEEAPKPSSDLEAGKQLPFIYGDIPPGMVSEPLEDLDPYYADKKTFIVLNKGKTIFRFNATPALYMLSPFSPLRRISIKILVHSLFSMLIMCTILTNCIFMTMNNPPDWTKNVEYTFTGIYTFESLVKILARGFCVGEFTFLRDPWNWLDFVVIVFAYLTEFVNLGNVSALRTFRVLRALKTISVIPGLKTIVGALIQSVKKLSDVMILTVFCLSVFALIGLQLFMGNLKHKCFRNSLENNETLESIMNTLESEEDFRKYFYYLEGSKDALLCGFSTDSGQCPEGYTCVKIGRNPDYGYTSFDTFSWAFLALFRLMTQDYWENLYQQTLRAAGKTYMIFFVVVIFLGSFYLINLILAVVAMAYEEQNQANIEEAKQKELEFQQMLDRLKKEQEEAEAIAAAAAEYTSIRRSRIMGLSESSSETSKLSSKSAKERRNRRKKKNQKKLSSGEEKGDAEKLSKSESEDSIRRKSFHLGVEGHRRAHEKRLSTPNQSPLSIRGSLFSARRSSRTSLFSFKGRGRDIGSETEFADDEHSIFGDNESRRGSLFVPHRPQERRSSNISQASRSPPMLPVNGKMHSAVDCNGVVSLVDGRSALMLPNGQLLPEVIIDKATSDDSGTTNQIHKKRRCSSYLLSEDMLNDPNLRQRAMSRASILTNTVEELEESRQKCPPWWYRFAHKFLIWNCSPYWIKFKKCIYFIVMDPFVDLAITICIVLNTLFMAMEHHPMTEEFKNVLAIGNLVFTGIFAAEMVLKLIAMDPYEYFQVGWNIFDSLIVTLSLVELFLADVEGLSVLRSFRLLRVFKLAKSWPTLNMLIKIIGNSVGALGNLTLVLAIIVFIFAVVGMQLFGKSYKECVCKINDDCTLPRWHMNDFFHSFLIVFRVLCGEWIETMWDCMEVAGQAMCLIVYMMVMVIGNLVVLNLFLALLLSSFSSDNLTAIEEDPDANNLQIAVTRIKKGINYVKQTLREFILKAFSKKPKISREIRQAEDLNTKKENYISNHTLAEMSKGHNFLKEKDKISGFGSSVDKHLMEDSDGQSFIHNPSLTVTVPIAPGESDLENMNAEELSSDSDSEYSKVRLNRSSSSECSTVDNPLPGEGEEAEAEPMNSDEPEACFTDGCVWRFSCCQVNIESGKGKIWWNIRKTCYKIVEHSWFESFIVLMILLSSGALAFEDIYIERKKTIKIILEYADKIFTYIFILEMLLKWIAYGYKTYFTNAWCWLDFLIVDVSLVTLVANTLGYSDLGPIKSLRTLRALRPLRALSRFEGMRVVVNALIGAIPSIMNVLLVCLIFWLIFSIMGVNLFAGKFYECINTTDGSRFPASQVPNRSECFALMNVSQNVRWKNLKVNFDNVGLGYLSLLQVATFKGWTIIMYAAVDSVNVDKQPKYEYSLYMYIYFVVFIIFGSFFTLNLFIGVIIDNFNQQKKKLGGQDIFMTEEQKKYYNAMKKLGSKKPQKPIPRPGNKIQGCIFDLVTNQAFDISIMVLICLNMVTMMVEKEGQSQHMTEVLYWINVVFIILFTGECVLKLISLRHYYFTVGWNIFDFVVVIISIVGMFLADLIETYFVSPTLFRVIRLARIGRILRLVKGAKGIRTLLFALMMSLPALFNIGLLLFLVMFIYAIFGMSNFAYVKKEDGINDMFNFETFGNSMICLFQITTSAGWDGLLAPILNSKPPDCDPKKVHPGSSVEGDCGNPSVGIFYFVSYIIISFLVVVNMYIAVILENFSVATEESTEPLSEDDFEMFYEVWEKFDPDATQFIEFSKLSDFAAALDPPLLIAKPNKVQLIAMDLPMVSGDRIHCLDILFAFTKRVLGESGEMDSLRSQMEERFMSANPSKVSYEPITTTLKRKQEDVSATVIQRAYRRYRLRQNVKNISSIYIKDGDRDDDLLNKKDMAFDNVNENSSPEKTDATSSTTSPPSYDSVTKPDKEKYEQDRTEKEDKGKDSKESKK
hNaV1.7, sequence (Q07699 whole entry partner, looked up): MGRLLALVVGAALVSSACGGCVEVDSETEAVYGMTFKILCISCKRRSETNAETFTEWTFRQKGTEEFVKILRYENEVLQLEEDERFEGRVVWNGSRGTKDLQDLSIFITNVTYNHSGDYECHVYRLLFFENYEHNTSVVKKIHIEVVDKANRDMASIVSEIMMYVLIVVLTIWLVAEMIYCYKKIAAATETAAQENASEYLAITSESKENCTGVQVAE

For `COc1ccc(CCOc2cc(F)c(C(=O)NS(=O)(=O)N(C)C)cc2Cl)cc1` [Preparation 57, 5-chloro-N-(N,N-dimethylsulfamoyl)-2-fluoro-4-(4-methoxy-phenethoxy)benzamide], the IC50 (usually the midpoint of a concentration-inhibition curve) is 2400 nM.

With `CN(C)S(=O)(=O)NC(=O)c1cc(Cl)c(OCCc2ccccc2)cc1F` [Preparation 58, 5-chloro-N-(N,N-dimethylsulfamoyl)-2-fluoro-4-phenethoxy-benzamide], the IC50 was determined as 1300 nM.

Consider `Cc1cc2cc(Oc3cc(F)c(C(=O)NS(=O)(=O)N(C)C)cc3Cl)ccc2[nH]1` [Preparation 59, 5-chloro-N-(N,N-dimethylsulfamoyl)-2-fluoro-4-((2-methyl-1H-indol-5-yl)oxy) benzamide], for which the 50% inhibitory concentration (IC50) was 5200 nM.

For `CN(C)S(=O)(=O)NC(=O)c1cc(Cl)c(Oc2cccc3cnccc23)cc1F` [Preparation 60, 5-chloro-N-(N,N-dimethylsulfamoyl)-2-fluoro-4-(isoquinolin-5-yloxy)benzamide], the IC50 amounted to 20000 nM.

Regarding `CN(C)S(=O)(=O)NC(=O)c1cc(Cl)c(Oc2ccc(S(C)(=O)=O)cc2)cc1F` [Preparation 61, 5-chloro-N-(N,N-dimethylsulfamoyl)-2-fluoro-4-(4-(methyl-sulfonyl)phenoxy) benzamide], the IC50 stood at 20000 nM.

As for `CN(C)S(=O)(=O)NC(=O)c1cc(Cl)c(Oc2ccc3cnn(C)c3c2)cc1F` [Preparation 62, 5-chloro-N-(N,N-dimethylsulfamoyl)-2-fluoro-4-((1-methyl-1H-indazol-6-yl)oxy) benzamide], the IC50 was found to be 14000 nM.

Consider `CN(C)S(=O)(=O)NC(=O)c1cc(Cl)c(Oc2cnc(N3CCCCC3)c(Cl)c2)cc1F` [Preparation 63, 5-chloro-4-((5-chloro-6-(piperidin-1-yl)pyridin-3-yl)oxy)-N-(N,N-dimethyl-sulfamoyl)-2-fluoro-benzamide], for which the IC50 is 140 nM.

In the case of `Cc1nc2ccc(Oc3cc(F)c(C(=O)NS(=O)(=O)N(C)C)cc3Cl)cc2s1` [Preparation 64, 5-chloro-N-(N,N-dimethylsulfamoyl)-2-fluoro-4-((2-methyl-benzo[d]thiazol-6-yl)oxy)benzamide], the IC50 was determined as 1900 nM.

On to `CC(C)COc1ncc(Oc2cc(F)c(C(=O)NS(=O)(=O)N(C)C)cc2C#N)cc1Cl` [Preparation 65, 4-((5-chloro-6-iso-butoxypyridin-3-yl)oxy)-5-cyano-N-(N,N-dimethylsulfamoyl)-2-fluorobenzamide], for which the IC50 came to 93 nM.

Regarding `O=C(NS(=O)(=O)N1CCCC1)c1cc(Cl)c(Oc2cnc(OCC(F)(F)C(F)F)c(Cl)c2)cc1F` [Preparation 66, 5-chloro-4-((5-chloro-6-(2,2,3,3-tetrafluoro-propoxy)pyridin-3-yl)oxy)-2-fluoro-N-(pyrrolidin-1-ylsulfonyl)benzamide], the IC50 amounted to 26 nM.

As for `O=C(NS(=O)(=O)c1cccnc1)c1cc(Cl)c(Oc2cnc(OCC(F)(F)C(F)F)c(Cl)c2)cc1F` [Preparation 69, 5-chloro-4-((5-chloro-6-(2,2,3,3-tetrafluoro-propoxy)pyridin-3-yl)oxy)-2-fluoro-N-(pyridin-3-ylsulfonyl) benzamide], the IC50 is 950 nM.

Turning to `CN(C)S(=O)(=O)NC(=O)c1cc(Cl)c(Oc2cc(OC(F)(F)F)ccc2F)cc1F` [Preparation 70, 5-chloro-N-(N,N-dimethylsulfamoyl)-2-fluoro-4-(2-fluoro-5-(trifluoromethoxy)phenoxy)benzamide], the IC50 is 340 nM.

`CN(C)S(=O)(=O)NC(=O)c1cc(Cl)c(Oc2cccc3ncccc23)cc1F` [Preparation 71, 5-chloro-N-(N,N-dimethylsulfamoyl)-2-fluoro-4-(quinolin-5-yloxy)benzamide]: the IC50 amounted to 20000 nM.

`CN(C)S(=O)(=O)NC(=O)c1cc(Cl)c(Oc2ccc3ncccc3c2)cc1F` [Preparation 72, 5-chloro-N-(N,N-dimethylsulfamoyl)-2-fluoro-4-(quinolin-6-yloxy)benzamide]: the 50% inhibitory concentration (IC50) came to 9600 nM.

Turning to `CN(C)S(=O)(=O)NC(=O)c1cc(Cl)c(Oc2ccc3ccncc3c2)cc1F` [Preparation 73, 5-chloro-N-(N,N-dimethylsulfamoyl)-2-fluoro-4-(isoquinolin-7-yloxy)benzamide], the IC50 came to 20000 nM.

In the case of `Cc1cc(Oc2cc(F)c(C(=O)NS(=O)(=O)N(C)C)cc2Cl)cc(C)c1C#N` [Preparation 74, 5-chloro-4-(4-cyano-3,5-dimethylphenoxy)-N-(N,N-dimethyl-sulfamoyl)-2-fluoro-benzamide], the IC50 came out at 11000 nM.

As to `CC(C)COc1ncc(Oc2cc(F)c(C(=O)NS(N)(=O)=O)cc2C#N)cc1Cl` [Preparation 75, 4-((5-chloro-6-iso-butoxypyridin-3-yl)oxy)-5-cyano-2-fluoro-N-sulfamoyl-benzamide], the IC50 was 290 nM.

As to `CNS(=O)(=O)NC(=O)c1cc(Cl)c(COc2cnc(OC(C)C)c(Cl)c2)cc1F` [Preparation 77], the IC50 stood at 140 nM.

Turning to `CNS(=O)(=O)NC(=O)c1cc(Cl)c(COc2ccc(Cl)c(C(F)(F)F)c2)cc1F` [Preparation 78], the IC50 worked out at 35 nM.

For `O=C(NS(=O)(=O)N1CCC1)c1cc(Cl)c(COc2ccc(OC(F)(F)F)c(Cl)c2)cc1F` [Preparation 79], the IC50 was determined as 17 nM.

With `O=C(NS(=O)(=O)N1CCC1)c1ccc(Oc2ccc(OC(F)(F)F)c(Cl)c2)c(C2(O)COC2)c1` [Preparation 81], the IC50 worked out at 20200 nM.

Turning to `CNS(=O)(=O)NC(=O)c1ccc(Oc2cnc(OC(C)C)c(Cl)c2)c(-c2cccnc2OC)c1` [Preparation 83], the IC50 came out at 43 nM.

As to `O=C(NS(=O)(=O)N1CCC1)c1cc(Cl)c(COc2ccc(Cl)c(C(F)(F)F)c2)cc1F` [Preparation 85], the IC50 worked out at 26 nM.

As to `CC(C)Oc1ncc(Oc2cc(F)c(C(=O)NS(=O)(=O)N3CCC3)cc2C2(F)COC2)cc1Cl` [Preparation 88], the IC50 was 44 nM.

For the molecule `CC(C)Oc1ncc(Oc2cc(F)c(C(=O)NS(=O)(=O)N3CCC3)cc2C2(O)COC2)cc1Cl` [Preparation 89], the IC50 turned out to be 1300 nM.

`CNS(=O)(=O)NC(=O)c1cc(C2CC2)c(Oc2cnc(OC(C)C)c(Cl)c2)cc1F` [Preparation 90]: the IC50 amounted to 6 nM.

For the molecule `O=C(NS(=O)(=O)N1CCC1)c1cc(Cl)c(Oc2cnc(OCC(F)(F)F)c(Cl)c2)cc1F` [Preparation 93], the IC50 came to 16 nM.

Turning to `O=C(NS(=O)(=O)N1CCC1)c1cc(C2CC2)c(Oc2cnc(OCC(F)(F)F)c(Cl)c2)cc1F` [Preparation 94], the IC50 is 9 nM.

For `O=C(NS(=O)(=O)N1CCC1)c1cc(C2CC2)c(COc2cc(Cl)cc(OC(F)(F)F)c2)cc1F` [Preparation 95], the 50% inhibitory concentration (IC50) is 2 nM.

With `O=C(NS(=O)(=O)N1CCC1)c1cc(C2CC2)c(COc2cc(Cl)cc(Cl)c2)cc1F` [Preparation 96], the IC50 came out at 0.3 nM.

Take `COc1ncccc1-c1cc(C(=O)NS(=O)(=O)N2CCC2)ccc1Oc1ccc(OC(F)(F)F)c(Cl)c1` [Preparation 97]: the IC50 was 52 nM.

Regarding `O=C(NS(=O)(=O)N1CCC1)c1cc(C2CC2)c(COc2ccc(Cl)c(Cl)c2)cc1F` [Preparation 98], the IC50 stood at 9 nM.

Take `O=C(NS(=O)(=O)N1CCC1)c1cc(Cl)c(COc2ccc(Cl)c(Cl)c2)cc1F` [Preparation 99]: the IC50 came out at 51 nM.

Consider `CNS(=O)(=O)NC(=O)c1cc(Cl)c(COc2ccc(OC(F)(F)F)c(Cl)c2)cc1F` [Preparation 100], for which the IC50 was found to be 43 nM.

On to `O=C(NS(=O)(=O)N1CCC1)c1cc(Cl)c(COc2cnc(OCC(F)(F)C(F)F)c(Cl)c2)cc1F` [Preparation 101], for which the IC50 amounted to 68 nM.
